Experimental data published in patent US20220298486A1, “UROTHELIAL CELL INDUCTION AGENT AND METHOD FOR INDUCING UROTHELIAL CELLS” (CellAxia Inc, priority 2019, published 2022).

Assays:
Type in all cases: cell-based, human
[1] = tested on: aHDFs into which F, T, L, and K had been introduced; experiment: examination of medium components (modified Uromedium) for selective proliferation of dUCs; conditions: for influence of concentration of the component on UPK2 mRNA: Uromedium with modified concentration
Description: (A) aHDFs into which F, T, L, and K had been introduced were cultured in “Uromedium” medium with modified concentrations of insulin, hydrocortisone, EGF, and IBMX. On Day 21, total RNA was extracted from aHDFs and control aHDFs free of gene introduction, and the gene expression level of UPK2 was measured by real-time RT-PCR. The values shown by mean±SD were normalized by β-actin mRNA expression and shown relative to the value of aHDFs free of gene introduction as 1.0 (N=3). (B) Phase-contrast microscopic images of aHDFs into which F, T, L, and K were introduced, and cultured for 21 days in “Uromedium” medium in which the concentration of hydrocortisone was modified to 0-fold and the concentration of IBMX was modified to 10-fold. Imaging magnification: ×10 (C) Phase-contrast microscopic images of aHDFs into which F, T, L, and K were introduced, and cultured for 21 days in “Uromedium” medium with or without addition of 1 μM tranylcypromine. The bar is 100 μm. (D) Phase-contrast microscopic images of aHDFs into which F, T, L, and K were introduced or not introduced, and cultured for 21 days in “Uromedium” medium or “UCM” medium. The bar is 100 μm.
“Uromedium” medium was produced according to the method of Osborn et al. (Osborn S L, (2014) Stem Cell Transl Med 3(5):610-619.). In summary fashion, the “Uromedium” medium is composed of EpiLife™ medium supplemented with 60 μM calcium (Gibco; MEP1500CA), 60 μg/mL bovine brain hypophysis extract (Gibco), 5 μg/mL human gene recombinant insulin (Diagnocine), 500 ng/mL hydrocortisone (Tokyo Chemical Industry Co., Ltd.), gentamicinamphotericin (Gibco), 2% FBS, 0.1 ng/mL human gene recombinant epidermal growth factor (EGF) (RSD), and 100 μM 3-isobutyl 1-methylxanthine (IBMX) (Sigma-Aldrich).
The “UCM” medium is composed of EpiLife™ medium supplemented with 60 μM calcium, 60 μg/mL bovine brain hypophysis extract, 5 μg/mL human gene recombinant insulin, gentamicinamphotericin, 2% FBS, 0.01 ng/mL human gene recombinant EGF, 1 mM IBMX, and 1 μM tranylcypromine (Abcam).

aHDFs [2] = experiment: real-time RT-PCR of marker mRNA in aHDFs after retroviral gene introduction; conditions: F, T, L, K-introduced aHDFs; plates uncoated or coated with collagen, poly-L-lysine, laminin; day 21
Description: (§1) aHDFs were seeded on a laminin-coated 12-well plate or a laminin-uncoated 12-well plate, and the gene was introduced using a retroviral vector. The cells were cultured in CnT-Prime medium or other medium, and 21 days later, observation with a phase contrast microscope, real-time PCR, and analysis of immunocytochemistry were performed. The cells were passaged in fresh culture plates and used for RNA sequencing and penetration assay. In the in vivo experiment, cells into which F, T, L, and K had been introduced were transurethrally transplanted into the injured bladder cavity of an interstitial cystitis mouse through a catheter.
(§2) aHDFs were seeded in 12-well plates coated with atelocollagen (KOKEN; I-PC30), poly-L-lysine (ScienCell), or laminin (Easy iMatrix-511 silk) at a density of 3×10^4 cells/well. After 24 hr, the medium was replaced with the retroviral suspension that was filtrated through a 0.45 μm pore filter (Toyo Roshi Kaisha, Ltd., ADVANTEC) and supplemented with 4 μg/mL polybrene. The next day, the culture supernatant was replaced with Standard Medium free of virus, and replaced with CnT-Prime or “UCM” medium 3 days later. The culture medium was changed every 3 or 4 days.
Total RNA was extracted using RNeasy Mini Kit (Qigen) according to the manufacturer's protocol. […] The relative mRNA expression levels were calculated from the following formula: […]

aHDFs [3] = experiment: epithelial (urothelial) cell colony formation, phase contrast microscope observation; conditions: F, T, L, K-introduced aHDFs; plates uncoated or coated with collagen, poly-L-lysine, laminin; day 21
Description: as §1, §2

N[C@@H]1C[C@H]1c1ccccc1 (racemic) [tranylcypromine]
formation of urothelial cell colonies ([1]; Uromedium with addition of 1 μM tranylcypromine, 21 days): enhanced

EGF: human gene recombinant epidermal growth factor
mRNA expression of UPK2 ([1]; addition of 0.01-1 ng/mL EGF, day 21): increased

C[C@]12CCC(=O)C=C1CC[C@@H]1[C@@H]2[C@@H](O)C[C@@]2(C)[C@H]1CC[C@]2(O)C(=O)CO [hydrocortisone]
influence of concentration of the component on UPK2 mRNA ([1]; day 21): not definitive

insulin: human gene recombinant insulin
influence of concentration of the component on UPK2 mRNA ([1]; day 21): not definitive

CC(C)Cn1c(=O)n(C)c(=O)c2[nH]cnc21 [IBMX, 3-isobutyl 1-methylxanthine]
expression of UPK2 mRNA ([1]; 1-10 mM IBMX in Uromedium, day 21): played a beneficial role
epithelial cell colony formation ([1]; medium containing 10 mM IBMX, 21 days): form epithelial cell colonies

laminin
expression of UPK1b and UPK2 mRNAs by plate coating (aHDFs [2]): the highest
epithelial cell colony formation by plate coating (aHDFs [3]): formed only in laminin-coated plates
